From patent publication US11939340B2, “CDK inhibitors and their use as pharmaceuticals” (Prelude Therapeutics Incorporated, priority 2022, dated 2024)

How the values were obtained:
CDK2/Cyclin E2 = CDK2/Cyclin E2 (Homo sapiens, UniProt P24941); assay: CDK2/CyclinE2 Enzymatic Activity Assay (TR-FRET); format: biochemical; conditions: CDK2/CyclinE2 1 nM, ATP 1 mM, read-out: CDK2_El IC50
Method: CDK2/CyclinE2 Enzymatic Activity Assay
The inhibitory activity of compounds was evaluated in vitro using TR-FRET assay with white 384-well low volume microplate (Greiner Bio-One). CDK2/Cyclin E2 catalyzed phosphorylation of peptide in the presence and absence of compounds was measured and used in IC50 determination. Recombinant protein complex CDK2/Cyclin E2, expressed from insect cell, was purchased from ProQinase. Testing compounds were dissolved in DMSO at 1 mM and tested in 9-dose IC50 mode. The reaction mixture was prepared by mixing CDK2/CyclinE2 (1 nM final), ULight-4E-BP1 (50 nM final, Perkinelmer, TRF0128-D), and ATP (1 mM final) in assay buffer (20 mM of HEPES pH 7.4, 1 mM of EGTA, 0.05% BSA, 0.005% Tween 20, and 1 mM TCEP). The compound of interest in DMSO was added to each well in 3-fold serial dilution by dispenser (TECAN D300E) to make a 9.9 μL of reaction mixture. After 20 minutes preincubation at room temperature, 0.1 μL MgCl2 (10 mM final) was added to initiate the reaction. Following a 45 minute incubation at 37° C., the reaction was stopped by addition of 2 μL of quenching buffer consisting of Lance detection buffer (Perkinelmer CR97-100C), LANCE Ultra Europium-anti-P-4E-BP1 (Perkinelmer, TRF0216-D), EDTA, and incubate at room temperature for additional 60 minutes in the dark. The reaction signal was measured by Envision multimode plate reader (PerkinElmer, 2102-0010). IC50 values were determined by fitting the data to the standard 4 parameters with Hill Slope using GraphPad Prism software.

CDK4/Cyclin D1 = biological target: T1, CDK4/Cyclin D1 (Homo sapiens, UniProt P11802); assay: CDK4/CyclinD1 Enzymatic Activity Assay (TR-FRET); format: biochemical; conditions: CDK4/CyclinD1 1 nM, ATP 2 mM, read-out: CDK4_D1 IC50
T1 construct: purchased ProQinase; host or cells: insect cell
Method: CDK4/CyclinD1 Enzymatic Activity Assay
The inhibitory activity of compounds was evaluated in vitro using TR-FRET assay with white 384-well low volume microplate (Greiner Bio-One). CDK4/Cyclin D1 catalyzed phosphorylation of peptide in the presence and absence of compounds was measured and used in IC50 determination. Recombinant protein complex CDK4/Cyclin D1, expressed from insect cell, was purchased from ProQinase. Testing compounds were dissolved in DMSO at 1 mM and tested in 9-dose IC50 mode. The reaction mixture was prepared by mixing CDK4/CyclinD1 (1 nM final), ULight-4E-BP1 (100 nM final, Perkinelmer, TRF0128-D), and ATP (2 mM final) in assay buffer (20 mM of HEPES pH 7.4, 1 mM of EGTA, 0.05% BSA, 0.005% Tween 20, and 1 mM TCEP). The compound of interest in DMSO was added to each well in 3-fold serial dilution by the dispenser (TECAN D300E) to make a 9.9 μL of reaction mixture. After 20 minutes preincubation at room temperature, 0.1 μL MgCl2 (10 mM final) was added to initiate the reaction. Following a 45 minute incubation at 37° C., the reaction was stopped by addition of 2 μL of quenching buffer consisting of Lance detection buffer (Perkinelmer CR97-100C), LANCE Ultra Europium-anti-P-4E-BP1 (Perkinelmer, TRF0216-D), EDTA, and incubated at room temperature for additional 60 minutes in dark. The reaction signal was measured by Envision multimode plate reader (PerkinElmer, 2102-0010). IC50 values were determined by fitting the data to the standard 4 parameters with Hill Slope using GraphPad Prism software.

pRB in OVCAR3 cells = assay: pRB ICW Assay in OVCAR3 Cells; format: cell-based; conditions: Homo sapiens, OVCAR-3, incubated with compound for 2 hours, read-out: OVCAR3 p-RB ICW IC50
Method: pRB ICW Assay in OVCAR3 Cells
OVCAR3 cells were maintained in RPMI (Corning, Catalog #: 10-040-CV) supplemented with 10% v/v FBS (Gibco, Catalog #: 26140-079), 1% v/v Penicillin Streptomycin (Gibco, Catalog #15140-122.) OVCAR3 cells grown at log phase were trypsinized, counted, and resuspended in fresh medium to reach a final density of 6.7e4 cells/mL and 75 μL of culture were dispensed into a 384-well plate (Falcon, cat #353962) using a Multidrop Combi dispenser (Thermo Scientific). The next day, compounds were dispensed as a 9-point, ½ log serial dilution using a Tecan digital dispenser (D300e), and cells were incubated with compound for 2 hours in a humidified incubator at 37° C. A reference compound at a final concentration of 10 μM was used as a control for maximum inhibition. Each compound was tested in duplicates for each experiment. At the end of the incubation, 25 μL of 16% paraformaldehyde (Electron Microscopy, cat #15710) was slowly added to each well and the plate was incubated at room temperature (RT) for 30 minutes to fix cells. Cells were then permeabilized by incubating with 50 μL/well of wash buffer (lx PBS with 0.1% Triton X-100) 5×5 minutes, followed by 1 hour blocking with 30 μL/well of Odyssey blocking buffer (Li—COR, cat #927-40000), at RT. Anti-phosphor RB antibody (Cell signaling 8516S) was diluted 1:1000 in Odyssey blocking buffer and 20 μL was added to all wells and incubated overnight in 4° C. with gently rocking. The next day, cells were washed 5×5 min with 50 μL/well of wash buffer, followed with 1 hour incubation with secondary antibody and DRAQ5 diluted in Odyssey blocking buffer (1:500 dilution for secondary antibody and 1:2000 dilution for DRAQ5), 5×5 min washes, and one last wash with water. Plates were dried in 37° C. oven for 5 minutes and scanned using Li—COR Odyssey CLx imaging system to acquire intensities at 700 and 800 nm channels.

T1 sequence (P11802 whole entry): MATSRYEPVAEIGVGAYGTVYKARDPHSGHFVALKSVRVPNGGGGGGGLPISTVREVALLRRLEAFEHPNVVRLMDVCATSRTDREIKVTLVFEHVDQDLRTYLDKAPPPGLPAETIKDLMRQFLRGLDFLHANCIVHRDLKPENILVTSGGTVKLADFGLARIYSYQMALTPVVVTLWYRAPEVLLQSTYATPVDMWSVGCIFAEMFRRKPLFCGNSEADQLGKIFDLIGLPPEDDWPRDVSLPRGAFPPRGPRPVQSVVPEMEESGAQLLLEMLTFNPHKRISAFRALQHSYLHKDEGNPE
T1 sequence (P24385 whole entry partner): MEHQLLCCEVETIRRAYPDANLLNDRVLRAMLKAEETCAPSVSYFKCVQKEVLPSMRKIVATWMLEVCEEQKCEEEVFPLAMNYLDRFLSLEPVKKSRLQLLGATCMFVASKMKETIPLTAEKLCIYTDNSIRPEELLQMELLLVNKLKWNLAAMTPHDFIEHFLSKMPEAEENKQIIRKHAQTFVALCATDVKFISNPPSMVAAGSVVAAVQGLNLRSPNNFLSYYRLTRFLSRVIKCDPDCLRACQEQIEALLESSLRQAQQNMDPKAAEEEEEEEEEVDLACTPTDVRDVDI

Structure (SMILES)	IC50 (CDK2/Cyclin E2)	IC50 (CDK4/Cyclin D1)	IC50 (pRB in OVCAR3 cells)
CCC12CCCN1C(=O)c1cc(-c3nc(NC4CCN(S(C)(=O)=O)CC4)ncc3F)sc12 (stereo not drawn) [Example 15, 8a-Ethyl-2-[5-fluoro-2-[(1-methylsulfonylpiperidin-4-yl)amino]pyrimidin-4-yl]-7,8-dihydro-6H-thieno[2,3-a]pyrrolizin-4-one]	≤ 100 nM	≤ 100 nM	≤ 100 nM
CCC12CC(N)CN1C(=O)c1cc(-c3nc(NC4CCN(S(C)(=O)=O)CC4)ncc3C(F)(F)F)sc12 (stereo not drawn) [Example 40, 7-Amino-8a-ethyl-2-(2-((1-(methylsulfonyl)piperidin-4-yl)amino)-5-(trifluoromethyl)pyrimidin-4-yl)-6,7,8,8a-tetrahydro-4H-thieno[2,3-a]pyrrolizin-4-one]	≤ 100 nM	≤ 100 nM	≤ 100 nM
CS(=O)(=O)N1CCC(Nc2ncc(C(F)(F)F)c(-c3cc4c(s3)C3(CO)CCCN3C4=O)n2)CC1 (stereo not drawn) [Example 17, 8a-(Hydroxymethyl)-2-(2-((1-(methylsulfonyl)piperidin-4-yl)amino)-5-(trifluoromethyl)pyrimidin-4-yl)-6,7,8,8a-tetrahydro-4H-thieno[2,3-a]pyrrolizin-4-one]	≤ 100 nM	≤ 100 nM	100 to 500 nM
CCC12CC(NC)CN1C(=O)c1cc(-c3nc(NC4CCN(S(=O)(=O)c5cnn(C)c5)CC4)ncc3C(F)(F)F)sc12 (stereo not drawn) [Example 49, 8a-Ethyl-2-(2-((1-((1-methyl-1H-pyrazol-4-yl)sulfonyl)piperidin-4-yl)amino)-5-(trifluoromethyl)pyrimidin-4-yl)-7-(methylamino)-6,7,8,8a-tetrahydro-4H-thieno[2,3-a]pyrrolizin-4-one]	≤ 100 nM	≤ 100 nM	≤ 100 nM
CCC12CC(N)CN1C(=O)c1cc(-c3nc(N[C@H]4CCN(S(C)(=O)=O)C[C@H]4C)ncc3C(F)(F)F)sc12 (stereo partly drawn) [Example 45, 7-Amino-8a-ethyl-2-(2-(((3R,4S)-3-methyl-1-(methylsulfonyl)piperidin-4-yl)amino)-5-(trifluoromethyl)pyrimidin-4-yl)-6,7,8,8a-tetrahydro-4H-thieno[2,3-a]pyrrolizin-4-one]	≤ 100 nM	≤ 100 nM	≤ 100 nM
CC(C)C12CCCCN1C(=O)c1cc(-c3nc(NC4CCN(S(C)(=O)=O)CC4)ncc3C(F)(F)F)sc12 (stereo not drawn) [Example 1, 9a-isopropyl-2-(2-((1-(methylsulfonyl)piperidin-4-yl)amino)-5-(trifluoromethyl)pyrimidin-4-yl)-7,8,9,9a-tetrahydrothieno[2,3-a]indolizin-4(6H)-one]	≤ 100 nM	≤ 100 nM	100 to 500 nM
CC(C)C12CCOCCN1C(=O)c1cc(-c3nc(NC4CCN(S(C)(=O)=O)CC4)ncc3C(F)(F)F)sc12 (stereo not drawn) [Example 10, 10a-Isopropyl-2-(2-((1-(methylsulfonyl)piperidin-4-yl)amino)-5-(trifluoro-methyl)pyrimidin-4-yl)-6,7,10,10a-tetrahydrothieno[2′,3′:3,4]pyrrolo[1,2-d][1,4]oxazepin-4(9H)-one]	≤ 100 nM	≤ 100 nM	100 to 500 nM
CCC12CC(NC)CN1C(=O)c1cc(-c3nc(NC4CCN(S(C)(=O)=O)CC4)ncc3C(F)(F)F)sc12 (stereo not drawn) [Example 38, 8a-Ethyl-7-(methylamino)-2-(2-((1-(methylsulfonyl)piperidin-4-yl)amino)-5-(trifluoromethyl)pyrimidin-4-yl)-6,7,8,8a-tetrahydro-4H-thieno[2,3-a]pyrrolizin-4-one]	≤ 100 nM	≤ 100 nM	≤ 100 nM
CC(C)C12CC(O)CN1C(=O)c1cc(-c3nc(NC4CCN(S(C)(=O)=O)CC4)ncc3C(F)(F)F)sc12 (stereo not drawn) [Example 29, 7-Hydroxy-8a-isopropyl-2-(2-((1-(methylsulfonyl)piperidin-4-yl)amino)-5-(trifluoromethyl)pyrimidin-4-yl)-6,7,8,8a-tetrahydro-4H-thieno[2,3-a]pyrrolizin-4-one]	≤ 100 nM	≤ 100 nM	≤ 100 nM
CS(=O)(=O)N1CCC(Nc2ncc(C(F)(F)F)c(-c3cc4c(s3)C3(CF)CCCN3C4=O)n2)CC1 (stereo not drawn) [Example 18, 8a-(Fluoromethyl)-2-(2-((1-(methylsulfonyl)piperidin-4-yl)amino)-5-(trifluoromethyl)pyrimidin-4-yl)-6,7,8,8a-tetrahydro-4H-thieno[2,3-a]pyrrolizin-4-one]	≤ 100 nM	≤ 100 nM	100 to 500 nM
CCC12CC(F)(F)CN1C(=O)c1cc(-c3nc(NC4CCN(S(=O)(=O)c5cnn(C)c5)CC4)ncc3C(F)(F)F)sc12 (stereo not drawn) [Example 35, 8a-Ethyl-7,7-difluoro-2-(2-((1-((1-methyl-1H-pyrazol-4-yl)sulfonyl)piperidin-4-yl)amino)-5-(trifluoromethyl)pyrimidin-4-yl)-6,7,8,8a-tetrahydro-4H-thieno[2,3-a]pyrrolizin-4-one]	≤ 100 nM	≤ 100 nM	≤ 100 nM
CC(C)C12CCCN1C(=O)c1cc(-c3nc(NC4CCN(S(C)(=O)=O)CC4)ncc3C(F)(F)F)sc12 (stereo not drawn) [Example 11, 8a-Isopropyl-2-(2-((1-(methylsulfonyl)piperidin-4-yl)amino)-5-(trifluoro-methyl)pyrimidin-4-yl)-6,7,8,8a-tetrahydro-4H-thieno[2,3-a]pyrrolizin-4-one]	≤ 100 nM	≤ 100 nM	100 to 500 nM
CS(=O)(=O)N1CCC(Nc2ncc(C(F)(F)F)c(-c3cc4c(s3)C3(C5CC5)CCCN3C4=O)n2)CC1 (stereo not drawn) [Example 22, 8a-Cyclopropyl-2-(2-((1-(methylsulfonyl)piperidin-4-yl)amino)-5-(trifluoromethyl)pyrimidin-4-yl)-6,7,8,8a-tetrahydro-4H-thieno[2,3-a]pyrrolizin-4-one]	≤ 100 nM	≤ 100 nM	≤ 100 nM
COC1CN2C(=O)c3cc(-c4nc(NC5CCN(S(C)(=O)=O)CC5)ncc4C(F)(F)F)sc3C2(C(C)C)C1 (stereo not drawn) [Example 30, 8a-Isopropyl-7-methoxy-2-(2-((1-(methylsulfonyl)piperidin-4-yl)amino)-5-(trifluoromethyl)pyrimidin-4-yl)-6,7,8,8a-tetrahydro-4H-thieno[2,3-a]pyrrolizin-4-one]	≤ 100 nM	≤ 100 nM	100 to 500 nM
